Measured values reported in patent US11173150B2, “Method for diagnosing, preventing, and treating neurological diseases” (United States Government As Represented By The Department …, priority 2010, dated 2021).
Values after ≈ are worked out from the molar mass of the structure shown. Where two headings read alike, the source gives them in different places. Bridge positions count the residues as written; N and C are the ends. Square brackets hold non-standard residues; d marks the D form. Peptide text beside a SMILES is read from it. * marks the point of attachment. Octanoyl(6-Me) = CCC(C)CCCCC(=O)*; Dab = NCC[CH](N)C(=O)O

Tests used:
[1] = cited from earlier work
Desulfovibrio = assay: Antimicrobial susceptibility testing, CLSI serial two-fold plate dilution; assay type: cell-based
tetanus toxin = tetanus toxin (Clostridium tetani, UniProt P04958); settings: cited from earlier work
clostridia = settings: cited from earlier work
[2] = Desulfovibrio, Desulfovibrio strain 8951, read-out: MIC
[3] = Desulfovibrio, Desulfovibrio strain 11232, read-out: MIC
[4] = Desulfovibrio, Desulfovibrio strain 11437, read-out: MIC
[5] = Desulfovibrio, Desulfovibrio strain 11789, read-out: MIC
[6] = Desulfovibrio, Desulfovibrio strain 11830, read-out: MIC
[7] = Desulfovibrio, Desulfovibrio strain 12379, read-out: MIC
[8] = Desulfovibrio, Desulfovibrio strain 13966, read-out: MIC
[9] = Desulfovibrio, Desulfovibrio type strain 29098^T, read-out: MIC
[10] = Desulfovibrio type strain 7757^T
[11] = Desulfovibrio type strain 29098^T

Chain of tetanus toxin (P04958 whole entry, looked up): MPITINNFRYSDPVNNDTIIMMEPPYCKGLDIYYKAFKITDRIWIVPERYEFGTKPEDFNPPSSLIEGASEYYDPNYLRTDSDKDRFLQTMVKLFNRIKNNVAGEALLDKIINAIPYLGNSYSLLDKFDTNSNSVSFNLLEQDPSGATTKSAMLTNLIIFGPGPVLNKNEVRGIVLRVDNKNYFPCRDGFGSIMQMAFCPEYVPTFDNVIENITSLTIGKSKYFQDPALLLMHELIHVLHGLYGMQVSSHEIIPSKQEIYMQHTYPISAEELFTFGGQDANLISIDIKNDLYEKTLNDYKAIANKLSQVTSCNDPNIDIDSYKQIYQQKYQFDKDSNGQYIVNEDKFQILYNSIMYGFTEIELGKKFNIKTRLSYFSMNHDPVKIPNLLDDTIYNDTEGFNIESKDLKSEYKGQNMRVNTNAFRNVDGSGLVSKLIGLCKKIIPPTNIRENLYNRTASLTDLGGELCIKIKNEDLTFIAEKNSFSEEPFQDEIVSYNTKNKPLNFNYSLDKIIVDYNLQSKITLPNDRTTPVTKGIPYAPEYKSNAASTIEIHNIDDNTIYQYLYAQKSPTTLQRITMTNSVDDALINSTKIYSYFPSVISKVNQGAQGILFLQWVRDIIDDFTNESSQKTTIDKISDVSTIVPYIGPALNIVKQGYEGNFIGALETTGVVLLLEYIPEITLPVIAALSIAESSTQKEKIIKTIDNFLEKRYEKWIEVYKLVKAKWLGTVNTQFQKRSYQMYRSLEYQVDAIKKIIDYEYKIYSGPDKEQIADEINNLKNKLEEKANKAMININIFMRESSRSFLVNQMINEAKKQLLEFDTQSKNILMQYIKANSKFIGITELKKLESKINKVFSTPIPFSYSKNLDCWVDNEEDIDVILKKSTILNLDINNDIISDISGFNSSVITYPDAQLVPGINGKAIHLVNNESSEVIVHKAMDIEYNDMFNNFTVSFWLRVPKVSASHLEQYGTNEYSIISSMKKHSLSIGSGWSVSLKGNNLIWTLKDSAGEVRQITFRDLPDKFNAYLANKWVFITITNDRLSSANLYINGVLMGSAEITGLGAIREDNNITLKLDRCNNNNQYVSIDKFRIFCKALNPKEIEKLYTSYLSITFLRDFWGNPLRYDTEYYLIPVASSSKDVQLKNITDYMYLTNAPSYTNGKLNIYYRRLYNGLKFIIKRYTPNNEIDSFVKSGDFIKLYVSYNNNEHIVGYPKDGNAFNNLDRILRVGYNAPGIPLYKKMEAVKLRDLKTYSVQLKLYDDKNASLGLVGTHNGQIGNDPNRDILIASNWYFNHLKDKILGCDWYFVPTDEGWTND

In the case of `C[C@H]1[C@H](NC(=O)/C(=N\OC(C)(C)C(=O)O)c2csc(N)n2)C(=O)N1S(=O)(=O)O` [Aztreonam], the “Absorption when given by the oral route” value ([1]; oral) is listed as “virtually unabsorbed”, the MIC (Desulfovibrio; Desulfovibrio, Desulfovibrio strain 4019) is listed as 512 µg/mL (≈ 1180 µM) and the MIC (Desulfovibrio; Desulfovibrio, Desulfovibrio strain 8381) is listed as 128 µg/mL (≈ 294 µM). It also gave an MIC (Desulfovibrio; [2]) of 64 µg/mL (≈ 147 µM), an MIC (Desulfovibrio; Desulfovibrio, Desulfovibrio strain 9070) of 512 µg/mL (≈ 1180 µM) and an MIC (Desulfovibrio; [3]) of 64 µg/mL (≈ 147 µM). The MIC (Desulfovibrio; [4]) was 64 µg/mL (≈ 147 µM), the MIC (Desulfovibrio; [5]) was 32 µg/mL (≈ 73.5 µM) and the MIC (Desulfovibrio; [6]) was 64 µg/mL (≈ 147 µM). For the same compound, the MIC (Desulfovibrio; [7]) was 16 µg/mL (≈ 36.7 µM), the MIC (Desulfovibrio; [8]) was 24 µg/mL (≈ 55.1 µM) and the MIC (Desulfovibrio; [9]) was 32 µg/mL (≈ 73.5 µM).
For `C[C@H](CS)C(=O)N1CCC[C@H]1C(=O)O` [Captopril], the “Effect on tetanus toxin in vitro” value (tetanus toxin) is given as “inactivates”.
For `NC[C@H]1O[C@H](O[C@H]2[C@H](O)[C@@H](O[C@H]3O[C@H](CO)[C@@H](O)[C@H](N)[C@H]3O)[C@H](N)C[C@@H]2N)[C@H](O)[C@@H](O)[C@@H]1O` [Kanamycin], the “Absorption when given by the oral route” value ([1]; in vivo, po) is given as “virtually unabsorbed”, the MIC (Desulfovibrio; Desulfovibrio, Desulfovibrio strain 4019, read-out: MIC) is given as 512 µg/mL (≈ 1060 µM) and the MIC (Desulfovibrio; Desulfovibrio, Desulfovibrio strain 8236, read-out: MIC) is given as 512 µg/mL (≈ 1060 µM). It also gave an MIC (Desulfovibrio; Desulfovibrio, Desulfovibrio strain 8381, read-out: MIC) of 256 µg/mL (≈ 528 µM), an MIC (Desulfovibrio; Desulfovibrio, Desulfovibrio strain 8907, read-out: MIC) of 256 µg/mL (≈ 528 µM) and an MIC (Desulfovibrio; Desulfovibrio, Desulfovibrio strain 8933, read-out: MIC) of 512 µg/mL (≈ 1060 µM). The MIC (Desulfovibrio; [2]) was 512 µg/mL (≈ 1060 µM), the MIC (Desulfovibrio; Desulfovibrio, Desulfovibrio strain 9070, read-out: MIC) was 512 µg/mL (≈ 1060 µM) and the MIC (Desulfovibrio; Desulfovibrio, Desulfovibrio strain 9120, read-out: MIC) was 256 µg/mL (≈ 528 µM). The MIC (Desulfovibrio; Desulfovibrio, Desulfovibrio strain 9706, read-out: MIC) was 256 µg/mL (≈ 528 µM), the MIC (Desulfovibrio; Desulfovibrio, Desulfovibrio strain 9976, read-out: MIC) was 128 µg/mL (≈ 264 µM) and the MIC (Desulfovibrio; Desulfovibrio, Desulfovibrio strain 10831, read-out: MIC) was 256 µg/mL (≈ 528 µM). It also gave an MIC (Desulfovibrio; Desulfovibrio, Desulfovibrio strain 11081, read-out: MIC) of 512 µg/mL (≈ 1060 µM), an MIC (Desulfovibrio; Desulfovibrio, Desulfovibrio strain 11094, read-out: MIC) of 512 µg/mL (≈ 1060 µM) and an MIC (Desulfovibrio; [3]) of 256 µg/mL (≈ 528 µM). For the same compound, the MIC (Desulfovibrio; Desulfovibrio, Desulfovibrio strain 11346, read-out: MIC) was 512 µg/mL (≈ 1060 µM), the MIC (Desulfovibrio; Desulfovibrio, Desulfovibrio strain 11378, read-out: MIC) was 512 µg/mL (≈ 1060 µM) and the MIC (Desulfovibrio; [4]) was 128 µg/mL (≈ 264 µM). It also gave an MIC (Desulfovibrio; Desulfovibrio, Desulfovibrio strain 11568, read-out: MIC) of 512 µg/mL (≈ 1060 µM), an MIC (Desulfovibrio; Desulfovibrio, Desulfovibrio strain 11623, read-out: MIC) of 256 µg/mL (≈ 528 µM) and an MIC (Desulfovibrio; Desulfovibrio, Desulfovibrio strain 11717, read-out: MIC) of 512 µg/mL (≈ 1060 µM). For the same compound, the MIC (Desulfovibrio; [5]) was 256 µg/mL (≈ 528 µM), the MIC (Desulfovibrio; [6]) was 128 µg/mL (≈ 264 µM) and the MIC (Desulfovibrio; Desulfovibrio, Desulfovibrio strain 11949, read-out: MIC) was 128 µg/mL (≈ 264 µM). It also gave an MIC (Desulfovibrio; [7]) of 512 µg/mL (≈ 1060 µM), an MIC (Desulfovibrio; [8]) of 512 µg/mL (≈ 1060 µM) and an MIC (Desulfovibrio; Desulfovibrio, Desulfovibrio type strain 7757^T, read-out: MIC) of 512 µg/mL (≈ 1060 µM). The MIC (Desulfovibrio; [9]) was 128 µg/mL (≈ 264 µM).
In the case of `CCC(C)CCCCC(=O)NC(CCN)C(=O)NC(C(=O)NC(CCN)C(=O)NC1CCNC(=O)C(C(C)O)NC(=O)C(CCN)NC(=O)C(CCN)NC(=O)C(CC(C)C)NC(=O)C(Cc2ccccc2)NC(=O)C(CCN)NC1=O)C(C)O` (stereo not shown) [Polymyxin B] ({Octanoyl(6-Me)}-[Dab]T[Dab][Dab][Dab]FL[Dab][Dab]T; lactam 4-C; configuration not given here), the “Absorption when given by the oral route” value ([1]; oral) is listed as “virtually unabsorbed”, the “Penetration of the intestinal mucosa” value ([1]; oral) is listed as “do not penetrate the intestinal mucosa” and the MIC (Desulfovibrio; Desulfovibrio strain 4019) is listed as 256 µg/mL (≈ 213 µM). For the same compound, the MIC (Desulfovibrio; Desulfovibrio strain 8236) was 256 µg/mL (≈ 213 µM), the MIC (Desulfovibrio; Desulfovibrio strain 8381) was over 512 µg/mL and the MIC (Desulfovibrio; Desulfovibrio strain 8907) was over 512 µg/mL. For the same compound, the MIC (Desulfovibrio; Desulfovibrio strain 8933) was over 512 µg/mL, the MIC (Desulfovibrio; Desulfovibrio strain 8951) was over 512 µg/mL and the MIC (Desulfovibrio; Desulfovibrio strain 9070) was over 512 µg/mL. It also gave an MIC (Desulfovibrio; Desulfovibrio strain 9120) of over 512 µg/mL, an MIC (Desulfovibrio; Desulfovibrio strain 9706) of over 512 µg/mL and an MIC (Desulfovibrio; Desulfovibrio strain 9976) of over 512 µg/mL. It also gave an MIC (Desulfovibrio; Desulfovibrio strain 10831) of 128 µg/mL (≈ 106 µM), an MIC (Desulfovibrio; Desulfovibrio strain 11081) of 256 µg/mL (≈ 213 µM) and an MIC (Desulfovibrio; Desulfovibrio strain 11094) of 256 µg/mL (≈ 213 µM). It also gave an MIC (Desulfovibrio; Desulfovibrio strain 11232) of over 512 µg/mL, an MIC (Desulfovibrio; Desulfovibrio strain 11346) of over 512 µg/mL and an MIC (Desulfovibrio; Desulfovibrio strain 11378) of 256 µg/mL (≈ 213 µM). It also gave an MIC (Desulfovibrio; Desulfovibrio strain 11437) of over 512 µg/mL, an MIC (Desulfovibrio; Desulfovibrio strain 11568) of over 512 µg/mL and an MIC (Desulfovibrio; Desulfovibrio strain 11623) of over 512 µg/mL. It also gave an MIC (Desulfovibrio; Desulfovibrio strain 11717) of 256 µg/mL (≈ 213 µM), an MIC (Desulfovibrio; Desulfovibrio strain 11789) of 16 µg/mL (≈ 13.3 µM) and an MIC (Desulfovibrio; Desulfovibrio strain 11830) of 128 µg/mL (≈ 106 µM). For the same compound, the MIC (Desulfovibrio; Desulfovibrio strain 11949) was over 512 µg/mL, the MIC (Desulfovibrio; Desulfovibrio strain 12379) was 8 µg/mL (≈ 6.65 µM) and the MIC (Desulfovibrio; Desulfovibrio strain 13966) was over 512 µg/mL. The MIC (Desulfovibrio; [10]) was 256 µg/mL (≈ 213 µM) and the MIC (Desulfovibrio; [11]) was 256 µg/mL (≈ 213 µM).
For Colistin, the “Absorption when given by the oral route” value ([1]; oral) is given as “virtually unabsorbed”, the “Penetration of the intestinal mucosa” value ([1]; oral) is given as “do not penetrate the intestinal mucosa” and the MIC (Desulfovibrio; Desulfovibrio strain 4019) is given as over 512 µg/mL. For the same compound, the MIC (Desulfovibrio; Desulfovibrio strain 8236) was over 512 µg/mL, the MIC (Desulfovibrio; Desulfovibrio strain 8381) was over 512 µg/mL and the MIC (Desulfovibrio; Desulfovibrio strain 8907) was over 512 µg/mL. It also gave an MIC (Desulfovibrio; Desulfovibrio strain 8933) of over 512 µg/mL, an MIC (Desulfovibrio; Desulfovibrio strain 8951) of over 512 µg/mL and an MIC (Desulfovibrio; Desulfovibrio strain 9070) of over 512 µg/mL. For the same compound, the MIC (Desulfovibrio; Desulfovibrio strain 9120) was over 512 µg/mL, the MIC (Desulfovibrio; Desulfovibrio strain 9706) was over 512 µg/mL and the MIC (Desulfovibrio; Desulfovibrio strain 9976) was over 512 µg/mL. It also gave an MIC (Desulfovibrio; Desulfovibrio strain 10831) of over 512 µg/mL, an MIC (Desulfovibrio; Desulfovibrio strain 11081) of over 512 µg/mL and an MIC (Desulfovibrio; Desulfovibrio strain 11094) of over 512 µg/mL. The MIC (Desulfovibrio; Desulfovibrio strain 11232) was over 512 µg/mL, the MIC (Desulfovibrio; Desulfovibrio strain 11346) was over 512 µg/mL and the MIC (Desulfovibrio; Desulfovibrio strain 11378) was over 512 µg/mL. It also gave an MIC (Desulfovibrio; Desulfovibrio strain 11437) of over 512 µg/mL, an MIC (Desulfovibrio; Desulfovibrio strain 11568) of over 512 µg/mL and an MIC (Desulfovibrio; Desulfovibrio strain 11623) of over 512 µg/mL. It also gave an MIC (Desulfovibrio; Desulfovibrio strain 11717) of over 512 µg/mL, an MIC (Desulfovibrio; Desulfovibrio strain 11789) of over 512 µg/mL and an MIC (Desulfovibrio; Desulfovibrio strain 11830) of over 512 µg/mL. The MIC (Desulfovibrio; Desulfovibrio strain 11949) was over 512 µg/mL, the MIC (Desulfovibrio; Desulfovibrio strain 12379) was over 512 µg/mL and the MIC (Desulfovibrio; Desulfovibrio strain 13966) was over 512 µg/mL. It also gave an MIC (Desulfovibrio; [10]) of over 512 µg/mL and an MIC (Desulfovibrio; [11]) of over 512 µg/mL.
Work on Trimethoprim/sulfamethoxazole [TMX/Sul] yielded an MIC (Desulfovibrio; Desulfovibrio strain 8381) of 256 µg/mL, an MIC (Desulfovibrio; Desulfovibrio strain 8907) of 512 µg/mL and an MIC (Desulfovibrio; Desulfovibrio strain 8933) of 256 µg/mL. For the same compound, the MIC (Desulfovibrio; Desulfovibrio strain 8951) was 256 µg/mL, the MIC (Desulfovibrio; Desulfovibrio strain 9070) was over 512 µg/mL and the MIC (Desulfovibrio; Desulfovibrio strain 9120) was 256 µg/mL. It also gave an MIC (Desulfovibrio; Desulfovibrio strain 9706) of 256 µg/mL, an MIC (Desulfovibrio; Desulfovibrio strain 9976) of 256 µg/mL and an MIC (Desulfovibrio; Desulfovibrio strain 11232) of 128 µg/mL. For the same compound, the MIC (Desulfovibrio; Desulfovibrio strain 11346) was 512 µg/mL, the MIC (Desulfovibrio; Desulfovibrio strain 11437) was 4 µg/mL and the MIC (Desulfovibrio; Desulfovibrio strain 11568) was over 512 µg/mL. For the same compound, the MIC (Desulfovibrio; Desulfovibrio strain 11623) was 512 µg/mL, the MIC (Desulfovibrio; Desulfovibrio strain 11949) was 512 µg/mL and the MIC (Desulfovibrio; Desulfovibrio strain 13966) was 512 µg/mL. For the same compound, the MIC (Desulfovibrio; [10]) was over 512 µg/mL and the MIC (Desulfovibrio; [11]) was 256 µg/mL.
For ramoplanin, the “Systemic absorption in humans” value ([1]; humans) is listed as “not detectably absorbed” and the Activity against clostridia (clostridia) is listed as “very good activity”.
